The assay concerns the target His-Tagged hOGA (human O-GlcNAcase) (Homo sapiens (Human), UniProt O60502). Kind of assay: Human O-GlcNAcase enzyme inhibition assay (Example B01). It counts as biochemical. Particulars: for OGA inhibitor activity (in words): measured according to Example B01; for IC50: OGA enzyme inhibition assay, activity range classes defined in μM, read-out: OGA IC50.

Where only a bound is given, the exact number is not on record here.

For orientation: IC50 means the concentration at which inhibition is half-maximal.

Chain of His-Tagged hOGA (human O-GlcNAcase) (O60502 whole entry): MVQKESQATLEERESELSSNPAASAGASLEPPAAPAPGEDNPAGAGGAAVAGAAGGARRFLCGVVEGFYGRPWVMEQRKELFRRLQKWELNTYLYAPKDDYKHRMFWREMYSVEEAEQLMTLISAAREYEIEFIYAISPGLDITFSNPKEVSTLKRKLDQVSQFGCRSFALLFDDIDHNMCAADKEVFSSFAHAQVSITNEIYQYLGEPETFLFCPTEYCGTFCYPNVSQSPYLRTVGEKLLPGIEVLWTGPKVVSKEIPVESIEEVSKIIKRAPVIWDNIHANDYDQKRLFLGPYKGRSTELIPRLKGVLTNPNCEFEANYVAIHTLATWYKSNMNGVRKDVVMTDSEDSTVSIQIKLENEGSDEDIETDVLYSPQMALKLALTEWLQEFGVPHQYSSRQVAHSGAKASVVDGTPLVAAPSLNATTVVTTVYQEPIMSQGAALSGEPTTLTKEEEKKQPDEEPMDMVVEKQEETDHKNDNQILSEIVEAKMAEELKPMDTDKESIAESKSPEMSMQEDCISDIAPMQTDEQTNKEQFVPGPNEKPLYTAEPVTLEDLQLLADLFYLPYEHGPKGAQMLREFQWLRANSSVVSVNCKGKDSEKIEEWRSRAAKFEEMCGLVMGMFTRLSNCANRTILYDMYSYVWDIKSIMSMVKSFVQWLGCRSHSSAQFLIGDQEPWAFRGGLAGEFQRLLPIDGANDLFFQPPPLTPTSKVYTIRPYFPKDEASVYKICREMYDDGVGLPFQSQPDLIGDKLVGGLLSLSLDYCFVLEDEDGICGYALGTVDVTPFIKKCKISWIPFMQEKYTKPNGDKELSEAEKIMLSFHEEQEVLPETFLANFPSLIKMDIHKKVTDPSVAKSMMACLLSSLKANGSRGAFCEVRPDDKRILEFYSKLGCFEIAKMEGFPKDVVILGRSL

`Cc1cc2ccc(C(C)N3CCN(c4ncccc4C(F)(F)F)CC3)cc2[nH]c1=O` (centres unmarked) [compound of example 56 of WO 99/21850, reference compound]: the “OGA inhibitor activity (in words)” value is reported as “not useful as OGA inhibitors”.
The same measure, in the same setting: in the case of `COc1ccc(C(C)N2CCN(c3ccc(Br)c(OC)n3)CC2)cc1OC` (centres unmarked) [compound of example 72 of WO 2005/110982, reference compound] it was “not active as OGA inhibitors”.
“(2-(4-(1-(benzo[d][1,3]dioxol-5-yl)ethyl)piperazin-1-yl)thiazol-4-yl)methanamine [Example 84]”: the IC50 was 0.05 to 0.2 µM.
Take “N-(2-(4-(1-(3,4-Dichlorophenyl)ethyl)piperazin-1-yl)thiazol-5-yl)acetamide [Example 87]”: the IC50 lay within 1 to 10 µM.
Same read-out and setting: in the case of “N-((2-(4-(1-(benzo[d][1,3]dioxol-5-yl)ethyl)piperazin-1-yl)thiazol-4-yl)methyl)acetamide [Example 85]” it was less than 0.05 µM.

Values taken from US10336775B2 (Asceneuron SA, priority 2014, dated 2019).
